“Also recorded” adds a separate entry of the source.
How the values were obtained:
[1] = pH measurement of sodium deoxycholate solutions; type: physicochemical
Text: The inverse aqueous solubility of sodium deoxycholate, where a more dilute solution (0.5% or 1%) provides more precipitation than a more concentrated solution (2%), is a surprising observation and also evidences that the precipitation phenomena is not directly related to pH, because the pH of the solutions were substantially the same again, especially for the 1% and 2% solutions.

[2] = Concentration dependent precipitation from aqueous sodium deoxycholate solution after storage, rated by visual inspection; type: physicochemical; conditions: 1 week storage; for Precipitation Rating: scale 0 = clear solution, 10 = substantial precipitation
Experimental: Solutions of sodium deoxycholate at different concentration were evaluated for precipitate formation after 1 week of storage. […] By visual inspection of FIGS. 1-4, the amount of precipitation can be rated as tabulated below.

C[C@H](CCC(=O)[O-])[C@H]1CCC2C3CC[C@@H]4C[C@H](O)CC[C@]4(C)C3C[C@H](O)[C@@]21C.[Na+] (stereo partly drawn) [Sodium Deoxycholate, sodium (4R)-4-((3R,5R,10S,12S,13R,17R)-3,12-dihydroxy-10,13-dimethylhexadecahydro-1H-cyclopenta[a]phenanthren-17-yl)pentanoate]
pH ([1]; 0.5% w/v solution, reading 1, 24.7 °C): 7.77
pH ([1]; 0.5% w/v solution, reading 2, 24.5 °C): 7.71
pH ([1]; 1% w/v solution, reading 1, 24.6 °C): 7.93
pH ([1]; 1% w/v solution, reading 2, 24.5 °C): 7.97
pH ([1]; 2% w/v solution, reading 1, 24.9 °C): 8.07
pH ([1]; 2% w/v solution, reading 2, 24.7 °C): 8.06
Precipitate observed (Comment) ([2]; 0.5% w/v in water + 0.9% w/v benzyl alcohol, FIG. 2): Significant amounts of precipitate visible
Precipitate observed (Comment) ([2]; 0.5% w/v in water + 0.9% w/v benzyl alcohol, FIG. 2, listed as sodium deoxycholate): a significant amount of precipitate is formed; also recorded: significant amounts of precipitate
Precipitation Rating ([2]; 0.5% w/v in water + 0.9% w/v benzyl alcohol): 10
Precipitate observed (Comment) ([2]; 1% w/v in water + 0.9% w/v benzyl alcohol, FIG. 3): Significant amounts of precipitate visible
Precipitate observed (Comment) ([2]; 1% w/v in water + 0.9% w/v benzyl alcohol, FIG. 3, listed as sodium deoxycholate): a significant amount of precipitate is formed; also recorded: significant amounts of precipitate, albeit less than that of 0.5% w/v sodium deoxycholate
Precipitation Rating ([2]; 1.0% w/v in water + 0.9% w/v benzyl alcohol): 7
Precipitate observed (Comment) ([2]; 2% w/v in water + 0.9% w/v benzyl alcohol, FIG. 4): Precipitation visible to the naked eye but
Precipitate observed (Comment) ([2]; 2% w/v in water + 0.9% w/v benzyl alcohol, FIG. 4, listed as sodium deoxycholate): significant amounts of precipitate but substantially less than that observed in FIGS. 2 and 3
Precipitation Rating ([2]; 2.0% w/v in water + 0.9% w/v benzyl alcohol): 2

Reference: US10946030B2, “Formulations of deoxycholic acid and salts thereof” (ALLERGAN SALES, LLC, priority 2011, dated 2021)
